Test system: K562 nude mice transplanted tumor
Assay: Inhibition of growth of K562 nude mice transplanted tumor (pre-trial, experiment 1, experiment 2)
Assay type: in vivo, Balb/c nude mice
Conditions: cyclophosphamide 10 ml/kg intraperitoneal; for tumor sizes: n=6; for inhibition ratio: of tumor mass
Source text: 2.4 K562 cell: primary K562 cell is derived from bone marrow of a patient having leukemia, introduced by Blood Research Institute from abroad, stored and passaged in Pathologic Cell Bank; cultured in RPMI1640 medium (comprising 10% fetal bovine serum).
2.6 experimental animal: Balb/c nude mice, 4~5 weeks old, weight: 17~20 g, gender: half male and half female. Experimental Animal Institute of the Chinese Academy of Medical Sciences, certification number of experimental animals: SCXK (JING) 2005-0013.
3.1.1 Balb/c nude mice were subjected to 3.0Gy whole-body irradiation, after subcutaneous inoculation of primary K562 cells. About 4 weeks after inoculation, tumor masses in growing were removed and transplanted into […], and this process was repeated for 2~3 passages to establish high oncogenic K562 cell line.
3.1.2 Nude mice were subjected to 3.0Gy whole-body irradiation, after subcutaneous inoculation of the K562 cells. One week after inoculation, nude mice with visible tumors were divided into the following 4 groups each consisting of 6 animals. The following dosages were administered for 3 continuous weeks, with 7 doses per week, a total of 21 doses.
Model control group: intraperitoneal injection of 20% aqueous solution of excipient at 0.2 ml/animal.
High dosage group: intraperitoneal injection of artemether at 150 ml/kg.
Middle dosage group: intraperitoneal injection of artemether at 100 ml/kg.
Low dosage group: intraperitoneal injection of artemether at 50 ml/kg.
Nude mice were subjected to a 3.0Gy whole-body irradiation, after subcutaneous inoculation of the K562 cells. One week after inoculation, nude mice with visible tumors were divided into the following 5 groups each consisting of 6 animals. The following dosages were administered for 3 continuous weeks, with 5 doses per week, a total of 15 doses.
Positive control group: intraperitoneal injection of cyclophosphamide at 10 ml/kg.
High dosage group: intraperitoneal injection of artemether at 100 ml/kg.
Middle dosage group: intraperitoneal injection of artemether at 60 ml/kg.
Low dosage group: intraperitoneal injection of artemether at 40 ml/kg.
Nude mice were subjected to a 3.0Gy whole-body irradiation, after subcutaneous inoculation of the K562 cells. One week after inoculation, nude mice with visible tumors were divided into the following 5 groups each consisting of 6 nude mice.
Model control group: intraperitoneal injection of 20% solution of excipient at 0.2ml/animal. The dosage was administered for 3 weeks, with 7 doses per week, a total of 21 doses.
Positive control group: intraperitoneal injection of cyclophosphamide at 10 ml/kg. The dosage was administered for 3 weeks, with 7 doses per week, a total of 21 doses.
High dosage group: intraperitoneal injection of artemether at 100 ml/kg. The dosage was administered for 3 weeks, with 5 doses per week, a total of 15 doses.
Middle dosage group: intraperitoneal injection of artemether at 60 ml/kg. The dosage was administered for 3 weeks, with 7 doses per week, a total of 21 doses.
Low dosage group: intraperitoneal injection of artemether at 40 ml/kg. The dosage was administered for 3 weeks, with 7 doses per week, a total of 21 doses.

[1] = experiment 1, 15 doses, 4 weeks after inoculation
[2] = experiment 2, 21 doses, 4 weeks after inoculation

O=P1(N(CCCl)CCCl)NCCCO1 (stereo not drawn) [Cyclophosphamide, cyclophosphamide]
tumor sizes (experiment 1, 15 doses in 3 weeks, 1 week after inoculation): 48.1±10.9 mm3
tumor sizes (experiment 1, 15 doses in 3 weeks, 2 weeks after inoculation): 104.9±60.3 mm3
tumor sizes (experiment 1, 15 doses in 3 weeks, 3 weeks after inoculation): 373.7±319.9 mm3
tumor sizes (experiment 1, 15 doses in 3 weeks, 4 weeks after inoculation): 799.0±571.3 mm3
tumor mass [1]: 651.7 ± 544.3 mg
tumor sizes (experiment 2, 21 doses in 3 weeks, 1 week after inoculation): 30.7±10.9 mm3
tumor sizes (experiment 2, 21 doses in 3 weeks, 2 weeks after inoculation): 77.3±49.8 mm3
tumor sizes (experiment 2, 21 doses in 3 weeks, 3 weeks after inoculation): 203.1 ±94.7 mm3
tumor sizes (experiment 2, 21 doses in 3 weeks, 4 weeks after inoculation): 327.0±206.8 mm3
tumor mass [2]: 241.7 ± 176.8 mg
inhibition ratio [1]: 39.2%
inhibition ratio [2]: 83.3%
